Source: patent US11858958B2, “Blank liposome with ginsenoside Rg3 or its analog as membrane materials and preparations and uses thereof” (Shanghai Ginsome Pharmatech Co., Ltd., priority 2018, dated 2024)

Legend:
rat C6 glioma cells [1] = assay: In vitro drug efficiency assay, survival rate of glioma cells; type: cell-based; settings: 72 h
Source text: (§1) For each concentration group, 4 replicates were set up. The whole experiment was independently repeated 3 times.
The survival rate of rat glioma C6 cells with addition of Rg3 group, Rg3-blank group, PTX group, PTX+Rg3 group, PTX-Cho-Lipo group and PTX-Rg3-Gipo group at various concentrations respectively are listed in Table 11 and FIG. 12.

[2] = tested on: in-situ glioma model (C6 cells); assay: Survival curve and median survival day; type: in vivo, nude mice
[3] = tested on: human gastric cancer cells (BGC-823); assay: In vitro cell viability assay; type: cell-based; parameters: unit not given here
Source text: as §1

rat C6 glioma cells [4] = assay: In vitro drug efficiency assay, survival rate of glioma cells; type: cell-based; settings: rat, 72 h
[5] = tested on: human breast cancer cell line (4T1); assay: In vitro drug efficacy assay, cell survival rate (Rh2/PTX groups)
Protocol: Logarithmically growing tumor cells were collected and resuspended in DMEM complete medium supplemented with 10% fetal bovine serum, 100 U/ml penicillin and 100 μg/ml streptomycin to a final cell density of 4×10^4 cells/ml. Then, 200 μl cell suspension solution was seeded into each well of a 96-well plate (with a concentration of 8×10^3 cells/well) and the plate was cultured in a CO2 cell culture incubator at 37° C. […] The group without replacing DMEM complete medium by anti-cancer drug solution was used as negative control. For each concentration group, 4 replicates were set up. The whole experiment was independently repeated 3 times. The cells were continuously cultured in a CO2 cell culture incubator at 37° C. […] Then discarded the supernatant, added 150 μl DMSO into each well, and shaked the plate for 10 min. The absorbance was measured at 490 nm using a microplate reader (Tecan infinite M 200 TECAN, Switzerland). The cell survival rate is calculated according to the following formula:

SMILES: CC(=O)O[C@H]1C(=O)[C@@]2(C)[C@H]([C@H](OC(=O)c3ccccc3)[C@]3(O)C[C@H](OC(=O)[C@H](O)[C@@H](NC(=O)c4ccccc4)c4ccccc4)C(C)=C1C3(C)C)[C@]1(OC(C)=O)CO[C@@H]1C[C@@H]2O [PTX, paclitaxel]
- Cell Viability (rat C6 glioma cells [1]; 0.0046 μg/ml): 73.2867
- Cell Viability (rat C6 glioma cells [1]; 0.0412 μg/ml): 60.49
- Cell Viability (rat C6 glioma cells [1]; 0.1235 μg/ml): 49.91
- Cell Viability (rat C6 glioma cells [1]; 0.37 μg/ml): 45.98
- Cell Viability (rat C6 glioma cells [1]; 1.111 μg/ml): 43.89
- Cell Viability (rat C6 glioma cells [1]; 3.333 μg/ml): 43.21
- Median survial ([2]; tail vein 10 mg·kg^−1): 27 days
- number of survived mice ([2]; tail vein 10 mg·kg^−1, Time 12 d): 10
- number of survived mice ([2]; tail vein 10 mg·kg^−1, Time 14 d): 10
- number of survived mice ([2]; tail vein 10 mg·kg^−1, Time 16 d): 9
- number of survived mice ([2]; tail vein 10 mg·kg^−1, Time 18 d): 8
- number of survived mice ([2]; tail vein 10 mg·kg^−1, Time 20 d): 7
- number of survived mice ([2]; tail vein 10 mg·kg^−1, Time 22 d): 6
- number of survived mice ([2]; tail vein 10 mg·kg^−1, Time 24 d): 6
- number of survived mice ([2]; tail vein 10 mg·kg^−1, Time 26 d): 5
- number of survived mice ([2]; tail vein 10 mg·kg^−1, Time 28 d): 4
- number of survived mice ([2]; tail vein 10 mg·kg^−1, Time 30 d): 4
- number of survived mice ([2]; tail vein 10 mg·kg^−1, Time 32 d): 4
- number of survived mice ([2]; tail vein 10 mg·kg^−1, Time 34 d): 3
- number of survived mice ([2]; tail vein 10 mg·kg^−1, Time 36 d): 1
- number of survived mice ([2]; tail vein 10 mg·kg^−1, Time 38 d): 1
- number of survived mice ([2]; tail vein 10 mg·kg^−1, Time 40 d): 0
- number of survived mice ([2]; tail vein 10 mg·kg^−1, Time 42 d): 0
- number of survived mice ([2]; tail vein 10 mg·kg^−1, Time 44 d): 0
- number of survived mice ([2]; tail vein 10 mg·kg^−1, Time 46 d): 0
- number of survived mice ([2]; tail vein 10 mg·kg^−1, Time 48 d): 0
- number of survived mice ([2]; tail vein 10 mg·kg^−1, Time 50 d): 0
- number of survived mice ([2]; tail vein 10 mg·kg^−1, Time 52 d): 0
- number of survived mice ([2]; tail vein 10 mg·kg^−1, Time 54 d): 0
- number of survived mice ([2]; tail vein 10 mg·kg^−1, Time 56 d): 0
- number of survived mice ([2]; tail vein 10 mg·kg^−1, Time 58 d): 0
- number of survived mice ([2]; tail vein 10 mg·kg^−1, Time 60 d): 0
- number of survived mice ([2]; tail vein 10 mg·kg^−1, Time 62 d): 0
- Cell Viability ([3]; listed as 1 of 9, PTX series C 0.0027-6 μg/mL ascending (8 levels)): 91.9
- Cell Viability ([3]; listed as 2 of 9, PTX series C 0.0027-6 μg/mL ascending (8 levels)): 80.5
- Cell Viability ([3]; listed as 3 of 9, PTX series C 0.0027-6 μg/mL ascending (8 levels)): 60.9
- Cell Viability ([3]; listed as 4 of 9, PTX series C 0.0027-6 μg/mL ascending (8 levels)): 50.3
- Cell Viability ([3]; listed as 5 of 9, PTX series C 0.0027-6 μg/mL ascending (8 levels)): 41.6
- Cell Viability ([3]; listed as 6 of 9, PTX series C 0.0027-6 μg/mL ascending (8 levels)): 42.7
- Cell Viability ([3]; listed as 7 of 9, PTX series C 0.0027-6 μg/mL ascending (8 levels)): 38.0
- Cell Viability ([3]; listed as 8 of 9, PTX series C 0.0027-6 μg/mL ascending (8 levels)): 33.2
- Cell Viability ([3]; listed as 9 of 9, PTX series C 0.0027-6 μg/mL ascending (8 levels)): 32.2
- Cell Viability (rat C6 glioma cells [4]; 0.0005 μg/ml): 100
- Cell Viability (rat C6 glioma cells [4]; 0.0015 μg/ml): 79.49
- Cell Viability (rat C6 glioma cells [4]; 0.0137 μg/ml): 65.36
- Cell Viability (rat C6 glioma cells [4]; 10 μg/ml): 39.59
- Cell Viability ([5]; 4T1, C 0.00091 μM): 106.72
- Cell Viability ([5]; 4T1, C 0.00274 μM): 94.70
- Cell Viability ([5]; 4T1, C 0.00823 μM): 59.19
- Cell Viability ([5]; 4T1, C 0.02469 μM): 55.83
- Cell Viability ([5]; 4T1, C 0.07407 μM): 49.25
- Cell Viability ([5]; 4T1, C 0.22222 μM): 48.48
- Cell Viability ([5]; 4T1, C 0.66667 μM): 48.54
- Cell Viability ([5]; 4T1, C 2.00000 μM): 52.00
